The assay has as its system human neonatal foreskin keratinocytes. The assay is described as follows: Keratinocyte growth by cell counting after seven days. The assay is classed as cell-based. As to conditions: 168 h.

Consider two molecules from patent US5326764A, “Method for the treatment of hyperproliferative disorders” (Yale University, priority 1993, dated 1994).

In general, inhibition refers to how much of the control response was suppressed. `O=c1[nH]cc(F)c(=O)[nH]1` [5-fluorouracil]: the inhibition at 0.5 µM (read-out: inhibition of cell growth) was determined as 30%.

Regarding `CN(Cc1cnc2nc(N)nc(N)c2n1)c1ccc(C(=O)N[C@@H](CCC(=O)O)C(=O)O)cc1` [methotrexate], under “read-out: inhibition of growth of keratinocytes”, the inhibition at 0.1 µM worked out at 32%.
